Measured values as given in patent US20090076168A1, “AMINE-BASED AND IMINE-BASED POLYMERS, USES AND PREPARATION THEREOF” (priority 2005, published 2009).

Tested on: skin
Conditions: guaranine 50 mg/mL, 1-2 mL solution or gel/100 cm^2 of skin, young subjects, compared to untreated subjects
Experimental: Bioactive molecules can be added and the mixture stirred for 30 minutes to 2 hours according to their liposoluble or water-soluble nature. The addition of collagen or gelatin (1-10%), Polawax™ (1-10%), cetyl alcohol (1-10%), fatty acids (stearic or palmitique, 1-10%), Tween™ 20% and terpenoid (i.e. limonene) is optional.

For `Cn1c(=O)c2c(ncn2C)n(C)c1=O` [guaranine], the blood pressure was “considerable increase” and the pulsations was “considerable increase”.
